Test results taken from US20220411380A1, “ACID ADDITION SALT OF RORy REGULATOR” (JIANGSU HENGRUI MEDICINE CO., LTD., priority 2019, published 2022).

Experiments:
[1] = Influencing factor study of amorphous form of compound of formula II; assay type: physicochemical
Protocol: A sample of the amorphous form of the compound of formula II (Example 4) was let stand open to examine the stability of the sample in conditions of heating (40° C. and 60° C.), illumination (4500 Lux) and high humidity (RH 75% and RH 90%) in a period of 30 days.

[2] = Long-term/accelerated stability study of amorphous form of compound of formula II; assay type: physicochemical
Protocol: The amorphous form of the compound of formula II (Example 4) was subjected to a long-term (25° C., 60% RH)/accelerated (40° C., 75% RH) stability study with a period of 3 months.

[3] = as above; assay type: physicochemical; remark: listed apart in the source
RORγ LBD-GST tagged = molecular target: T1, RORγ LBD-GST tagged (Homo sapiens, UniProt P51449); assay: LanthaScreen TR-FRET RORγ-LBD and co-activation peptide biochemical assay; conditions: Fluorescein-D22 coactivator, read-out: RORγ coactivation assay (IC50)
T1 construct: RORγ LBD-GST tagged (Cat No. RORC-114H, Creative Biomart); purchased Creative Biomart RORC-114H
T1 sequence (P51449 269-508 limits assumed): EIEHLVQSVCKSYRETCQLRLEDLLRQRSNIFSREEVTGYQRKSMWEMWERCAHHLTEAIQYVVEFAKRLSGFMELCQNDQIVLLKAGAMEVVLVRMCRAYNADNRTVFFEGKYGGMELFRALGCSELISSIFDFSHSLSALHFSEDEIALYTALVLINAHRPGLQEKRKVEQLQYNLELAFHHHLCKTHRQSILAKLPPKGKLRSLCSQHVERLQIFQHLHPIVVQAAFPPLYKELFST
Protocol: Test Example 1. Biochemical Assay of LanthaScreen TR-FRET RORγ-LBD and Co-Activation Peptide
Complete TR-FRET Coregulator Buffer D was prepared by diluting 1 M DTT with TR-FRET Coregulator Buffer D to a final concentration of 5 mM DTT. The compounds were diluted in Complete TR-FRET Coregulator Buffer D. The solutions were serially 7-fold diluted from an initial concentration of 3 μM to the 7th concentration. 10 μL of the dilutions was added to each well of the 384-well plate. For negative and positive controls, 10 μL of Complete TR-FRET Coregulator Buffer D was added.
A RORγ LBD solution was prepared using Complete TR-FRET Coregulator Buffer D. The final concentration of the RORγ LBD solution in each reaction was 25 ng. Other than the negative wells receiving 5 μL of Complete TR-FRET Coregulator Buffer D, 5 μL of the RORγ LBD solution was added to the remaining wells of the 384-well assay plate.
Complete TR-FRET Coregulator Buffer D was used to prepare a solution containing 0.6 μM Fluorescein-D22 and 8 nM Tbanti-GST antibody, and 5 μL of the prepared solution was added to all wells of the 384-well assay plate. […]
The plate was measured on a Tecan Infinite M1000 plate reader at wavelengths of 520 nm and 495 nm. IC50 values were calculated using GraphPad Prism by plotting log compound concentration versus percentage inhibition.

[4] = system: IL-17A production in human peripheral blood mononuclear cells; assay: Inhibition of cytokine IL-17A production in human peripheral blood mononuclear cells; assay type: cell-based; conditions: 72 h; human PBMC, cytostim, 3 days, IL-17A ELISA
Protocol: Test Example 2. Assay for Inhibiting Cytokine IL-17A Production in Human Peripheral Blood Mononuclear Cells
Frozen human peripheral blood mononuclear cells (PBMCs) were rapidly thawed in a pre-warmed lymphocyte medium and centrifuged at 1000 rpm for 10 min. The cell culture supernatant was discarded, and the cells were gently suspended in the TexMACS medium and counted. T cell activating reagent cytostim (10 μL/mL) was added to the cell suspension in certain proportions, and then the cells were seeded in a 96-well cell culture plate at a density of 1×10^5 PBMCs/well. Test compounds were diluted in gradient using TexMACS medium and added to the treatment wells in 2-3 replicates. Negative control wells containing cells only without cytostim were prepared to obtain background readings. The cell culture plate was incubated in a 5% carbon dioxide/37° C. incubator for 3 days. Cell culture supernatant was collected 3 days after treatment and centrifuged to remove the suspended matter. IL-17A in the supernatant was then quantified using an IL-17A enzyme-linked immunosorbent assay kit. […]
In the calculation equation, inhibition % is inhibition rate; OD(NC) is the reading of cells in negative control groups with no cytostim and no compound; OD(PC) is the reading of cells in positive control groups with cytostim but no compound; OD(compound) is the reading of cells with cytostim and compound.

Compound: NC(=O)C[C@H](c1ccc(S(=O)(=O)CC2CC2)cc1)c1nc2cc(-c3ccccc3OC(F)F)c(Cl)cc2[nH]1 [amorphous form of compound of formula II]
- Amorphous form Purity (%) ([1]; 40° C., 5 days): 99.93%
- Color and appearance ([1]; 40° C., 5 days): White solid
- Amorphous form Purity (%) ([1]; 40° C., 10 days): 99.90%
- Chiral purity ([1]; 40° C., 10 days): 99.4
- Color and appearance ([1]; 40° C., 10 days): White solid
- Amorphous form Purity (%) ([1]; 40° C., 30 days): 99.92%
- Chiral purity ([1]; 40° C., 30 days): 99.5
- Color and appearance ([1]; 40° C., 30 days): White solid
- Amorphous form Purity (%) ([1]; 60° C., 5 days): 99.95%
- Color and appearance ([1]; 60° C., 5 days): White solid
- Amorphous form Purity (%) ([1]; 60° C., 10 days): 99.95%
- Chiral purity ([1]; 60° C., 10 days): 99.4
- Color and appearance ([1]; 60° C., 10 days): White solid
- Amorphous form Purity (%) ([1]; 60° C., 30 days): 99.95%
- Chiral purity ([1]; 60° C., 30 days): 99.4
- Color and appearance ([1]; 60° C., 30 days): White solid
- Amorphous form Purity (%) ([1]; 4500 Lux, 5 days): 99.91%
- Color and appearance ([1]; 4500 Lux, 5 days): White solid
- Amorphous form Purity (%) ([1]; 4500 Lux, 10 days): 99.91%
- Chiral purity ([1]; 4500 Lux, 10 days): 99.3
- Color and appearance ([1]; 4500 Lux, 10 days): White solid
- Amorphous form Purity (%) ([1]; 4500 Lux, 30 days): 99.93%
- Chiral purity ([1]; 4500 Lux, 30 days): 99.3
- Color and appearance ([1]; 4500 Lux, 30 days): White solid
- Stability (conclusion of influencing factor study) ([1]; 30 days, illumination, 40° C., 60° C., high humidity of 75% and 90%): good chemical stability
- Amorphous form Purity (%) ([1]; Initial, 0 days): 99.91%
- Chiral purity ([1]; Initial, 0 days): 99.4
- Color and appearance ([1]; Initial, 0 days): White solid
- Amorphous form Purity (%) ([1]; RH 75%, 5 days): 99.92%
- Color and appearance ([1]; RH 75%, 5 days): White solid
- Weight gain (%) ([1]; RH 75%, 5 days): 10.42%
- Amorphous form Purity (%) ([1]; RH 75%, 10 days): 99.90%
- Chiral purity ([1]; RH 75%, 10 days): 99.3
- Color and appearance ([1]; RH 75%, 10 days): White solid
- Weight gain (%) ([1]; RH 75%, 10 days): 13.2%
- Amorphous form Purity (%) ([1]; RH 75%, 30 days): 99.90%
- Chiral purity ([1]; RH 75%, 30 days): 99.4
- Color and appearance ([1]; RH 75%, 30 days): White solid
- Weight gain (%) ([1]; RH 75%, 30 days): 23.24%
- Amorphous form Purity (%) ([1]; RH 90%, 5 days): 99.91%
- Color and appearance ([1]; RH 90%, 5 days): White solid
- Weight gain (%) ([1]; RH 90%, 5 days): 21.67%
- Amorphous form Purity (%) ([1]; RH 90%, 10 days): 99.92%
- Chiral purity ([1]; RH 90%, 10 days): 99.4
- Color and appearance ([1]; RH 90%, 10 days): White solid
- Weight gain (%) ([1]; RH 90%, 10 days): 26.49%
- Amorphous form Purity (%) ([1]; RH 90%, 30 days): 99.89%
- Chiral purity ([1]; RH 90%, 30 days): 99.4
- Color and appearance ([1]; RH 90%, 30 days): White solid
- Weight gain (%) ([1]; RH 90%, 30 days): 37.24%
- Stability (conclusion of long-term/accelerated study) ([2]; 25° C., 60% RH and 40° C., 75% RH, 3 months): good chemical stability
- Chiral purity Initial ([2]; 25° C., 60% RH, Initial): 99.2
- Purity Initial ([2]; 25° C., 60% RH, Initial): 99.87
- Purity (%) Month 1 ([2]; 25° C., 60% RH): 99.86%
- Purity (%) Month 2 ([2]; 25° C., 60% RH, Month 2): 99.86%
- Chiral purity Initial ([2]; 40° C., 75% RH, Initial): 99.2
- Purity (%) Month 1 ([2]; 40° C., 75% RH): 99.87%
- Chiral purity (%) Month 3 ([2]; 40° C., 75% RH, Month 3): 99.1%
- Purity (%) Month 3 ([2]; 40° C., 75% RH, Month 3): 99.88%
- Chiral purity Initial ([3]; 5° C., Initial): 99.2
- Purity Initial ([3]; 5° C., Initial): 99.87
- Purity (%) Month 1 ([3]; 5° C., Month 1): 99.86%
- Purity (%) Month 2 ([3]; 5° C.): 99.86%
- Chiral purity (%) Month 3 ([3]; 5° C.): 99.1%
- Purity (%) Month 3 ([3]; 5° C.): 99.85%
- Chiral purity (%) Month 3 ([3]; 25° C., 60% RH): 99.2%
- Purity (%) Month 3 ([3]; 25° C., 60% RH): 99.85%
- Purity Initial ([3]; 40° C., 75% RH, Initial): 99.87
- Purity (%) Month 2 ([3]; 40° C., 75% RH): 99.86%

Compound: NC(=O)C[C@H](c1ccc(S(=O)(=O)CC2CC2)cc1)c1nc2cc(-c3ccccc3OC(F)F)c(Cl)cc2[nH]1 (single isomer, unassigned) [compound of formula II]
- IC50 (RORγ LBD-GST tagged): 13 nM
- IC50 [4]: 10 nM
